The values below come from article PMC9079729, “Conservation of the conformational dynamics and ligand binding within M49 enzyme family” (RSC Advances, 2018).

A word on the Ki: it is a measure of affinity in units of concentration, obtained from inhibition or displacement. Read a low Ki as a stronger hold on the target.

Assay [1] concerns the target T1, BtDPP III (Bacteroides thetaiotaomicron, UniProt Q8A6N1).
T1 construct: made in house; host or cells: E. coli
Description: Inhibition of DPP III hydrolysis of Arg2-2NA by tynorphin. The note with it: substrate Arg2-2NA, from initial hydrolysis rates, eq. 1. In kind it is biochemical.
Description: Enzyme inhibition studies with tynorphin were performed using the Arg2-2NA as a substrate, according to Baršun et al.[36] The inhibition constant, Ki, was calculated according to the equation:1 Ki = i/(v0/vi − 1)·Km/(Km + s)where v0 and vi are the initial hydrolysis rates of Arg2-2NA (given in concentration s) catalyzed by DPP III in the absence and presence of inhibitor concentration (i), and Km is the Michaelis constant.

Assay [2] has as its target T2, yDPP III (Saccharomyces cerevisiae, UniProt Q08225).
T2 construct: His6 (C); made in house; host or cells: E. coli
T2 sequence (Q08225 1-711): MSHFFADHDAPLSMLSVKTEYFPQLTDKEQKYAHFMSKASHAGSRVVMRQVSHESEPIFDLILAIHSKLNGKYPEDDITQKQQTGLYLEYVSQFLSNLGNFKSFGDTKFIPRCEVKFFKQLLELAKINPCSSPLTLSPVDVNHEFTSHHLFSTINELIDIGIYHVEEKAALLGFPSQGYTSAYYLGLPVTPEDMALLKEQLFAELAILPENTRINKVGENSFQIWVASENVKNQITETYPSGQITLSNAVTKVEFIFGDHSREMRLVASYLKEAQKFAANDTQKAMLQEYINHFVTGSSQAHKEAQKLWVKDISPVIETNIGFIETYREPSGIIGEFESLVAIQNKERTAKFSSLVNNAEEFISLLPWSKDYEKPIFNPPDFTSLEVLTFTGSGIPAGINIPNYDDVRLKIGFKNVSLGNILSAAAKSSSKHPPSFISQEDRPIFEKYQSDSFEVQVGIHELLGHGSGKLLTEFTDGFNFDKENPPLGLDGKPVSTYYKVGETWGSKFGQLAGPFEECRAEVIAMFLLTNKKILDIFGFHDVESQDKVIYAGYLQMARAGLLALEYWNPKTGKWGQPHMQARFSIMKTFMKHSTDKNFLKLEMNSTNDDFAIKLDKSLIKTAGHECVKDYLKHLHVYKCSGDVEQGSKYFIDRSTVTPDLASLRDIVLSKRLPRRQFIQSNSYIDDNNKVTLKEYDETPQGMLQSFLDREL
Description: Differential HDX-MS, unliganded vs. tynorphin complex. In kind it is binding, yeast (Saccharomyces cerevisiae). The note with it: yDPP III peptide p42 (407-422). As to the method: In the first step of the HDX analysis, optimization of digestion conditions and establishing a list of peptic peptides for all DPP III orthologues was carried out. With non-deuterated sample, a 5 μL aliquot of protein stock (between 35–50 μM in 20 mM Tris, pH 7.4) was diluted 10 times by adding 45 μL of 20 mM Tris, pH 7.4 (H2O reaction buffer). Next, the sample was acidified by mixing with 10 μL of 2 M glycine buffer, pH 2.5 (H2O stop buffer). The sample was subjected to online pepsin digestion using a 2.1 mm × 30 mm immobilized pepsin resin column (Porozyme, ABI, Foster City, CA) with 200 μL min^−1 flow of 0.07% formic acid in water as a mobile phase. Digested peptides were passed directly to the 2.1 mm × 5 mm C18 trapping column (Acquity BEH C18 VanGuard precolumn, 1.7 μm resin, Waters, Milford, MA). […]
Separate hydrogen deuterium exchange experiments were carried out for six unliganded DPP III enzymes, human V412I mutant, and their tynorphin complexes. […] The reaction buffer was prepared using D2O (99.8% Armar Chemicals, Switzerland), in which the pH (uncorrected meter reading) was adjusted using DCl or NaOD (Sigma). […] Relative deuterium uptake values are calculated without correction for back exchange. […]

Residues, ends and D or L forms follow the SMILES beside them.

T1 sequence (Q8A6N1 entry or part of it, change not shown): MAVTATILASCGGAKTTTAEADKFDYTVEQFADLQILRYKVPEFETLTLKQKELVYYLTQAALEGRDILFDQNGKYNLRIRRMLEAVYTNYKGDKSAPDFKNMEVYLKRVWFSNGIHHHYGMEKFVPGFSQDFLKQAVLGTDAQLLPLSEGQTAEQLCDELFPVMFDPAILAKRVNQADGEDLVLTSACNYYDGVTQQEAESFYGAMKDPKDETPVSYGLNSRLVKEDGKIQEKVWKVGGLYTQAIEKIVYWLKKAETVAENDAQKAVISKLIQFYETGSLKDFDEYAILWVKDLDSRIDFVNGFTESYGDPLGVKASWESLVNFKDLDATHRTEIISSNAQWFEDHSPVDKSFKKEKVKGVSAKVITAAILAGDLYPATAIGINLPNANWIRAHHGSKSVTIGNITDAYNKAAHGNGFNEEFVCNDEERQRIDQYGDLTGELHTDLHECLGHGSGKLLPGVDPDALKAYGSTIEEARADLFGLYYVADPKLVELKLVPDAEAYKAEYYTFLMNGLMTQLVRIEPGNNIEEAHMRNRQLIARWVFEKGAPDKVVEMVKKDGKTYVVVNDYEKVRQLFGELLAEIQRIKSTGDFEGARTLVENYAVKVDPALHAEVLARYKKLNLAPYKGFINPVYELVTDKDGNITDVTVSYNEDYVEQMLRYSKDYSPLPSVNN

Regarding `CC(C)[C@H](N)C(=O)N[C@H](C(=O)N[C@@H](Cc1ccc(O)cc1)C(=O)N1CCC[C@H]1C(=O)N[C@@H](Cc1c[nH]c2ccccc12)C(=O)O)C(C)C` [tynorphin] (H-VVYPW-OH), the Ki in assay [1] stood at 980 nM. In assay [2], the “deuterium incorporation decrease, fast exchanging conformation” value is recorded as “less than 1%” and the “deuterium incorporation decrease, slow exchanging conformation” value is listed as “more than 22%”.
